The target in experiment [1] is T1, Recombinant human His6-USP1/His6-UAF1 complex protein (Homo sapiens, UniProt O94782).
T1 construct: His6; purchased R&D E-568-050
Kind of experiment: In vitro inhibitory activity against USP1 (Ubiquitin Rhodamine 110 fluorescence detection, 384-well plate). The experiment is classed as biochemical. The settings on record: Ub-Rho substrate, 1 hour pre-incubation, read after 30 minutes. In a few lines:
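Fluorescence assay measuring inhibition of recombinant human His6-USP1/His6-UAF1 complex with Ubiquitin-Rhodamine 110 substrate. Compounds held as 50 mM stocks in 100% DMSO and dispensed by acoustic transfer into modified Tris assay buffer.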

For another experiment, the system named is MDA-MB-436. Kind of experiment: CTG experiment for cell viability (CellTiter-Glo, 96-well plate, 7 days). The experiment is classed as cell-based. The settings on record: Homo sapiens, MDA-MB-436, 168 h, MDA-MB-436 cells, 7 days culture with compound. In a few lines:
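MDA-MB-436 cells in DMEM were plated in 96-well format, treated with compounds, and cultured 7 days at 37°C. After removing the medium, cells were given PBS plus CellTiter-Glo reagent, incubated 10 min at room temperature, and luminescence was read. Curves were fitted as for the enzyme assay.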
A general note: Cellular ATP, detected with luciferase, serves as a proxy for viable cell number.

T1 sequence (O94782 whole entry): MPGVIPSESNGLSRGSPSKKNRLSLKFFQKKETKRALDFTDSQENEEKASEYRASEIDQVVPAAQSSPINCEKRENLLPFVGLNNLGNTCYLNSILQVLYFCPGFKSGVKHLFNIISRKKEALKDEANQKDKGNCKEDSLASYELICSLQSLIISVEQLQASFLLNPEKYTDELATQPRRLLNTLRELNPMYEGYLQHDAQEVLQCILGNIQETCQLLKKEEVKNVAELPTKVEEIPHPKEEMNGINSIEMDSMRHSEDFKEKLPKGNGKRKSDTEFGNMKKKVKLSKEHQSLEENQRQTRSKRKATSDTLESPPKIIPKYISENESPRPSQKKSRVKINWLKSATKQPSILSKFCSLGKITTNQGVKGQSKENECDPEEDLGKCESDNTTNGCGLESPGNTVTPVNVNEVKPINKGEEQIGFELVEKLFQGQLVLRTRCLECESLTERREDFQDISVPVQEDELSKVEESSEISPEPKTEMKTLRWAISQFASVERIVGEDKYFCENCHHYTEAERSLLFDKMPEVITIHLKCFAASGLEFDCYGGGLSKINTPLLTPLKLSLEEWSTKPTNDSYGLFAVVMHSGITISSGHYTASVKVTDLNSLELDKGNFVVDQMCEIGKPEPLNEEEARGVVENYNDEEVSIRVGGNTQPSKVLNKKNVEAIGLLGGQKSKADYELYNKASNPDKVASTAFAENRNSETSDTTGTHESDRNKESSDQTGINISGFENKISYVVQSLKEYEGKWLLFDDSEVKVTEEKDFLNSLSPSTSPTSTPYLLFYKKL
T1 sequence (Q8TAF3 whole entry partner): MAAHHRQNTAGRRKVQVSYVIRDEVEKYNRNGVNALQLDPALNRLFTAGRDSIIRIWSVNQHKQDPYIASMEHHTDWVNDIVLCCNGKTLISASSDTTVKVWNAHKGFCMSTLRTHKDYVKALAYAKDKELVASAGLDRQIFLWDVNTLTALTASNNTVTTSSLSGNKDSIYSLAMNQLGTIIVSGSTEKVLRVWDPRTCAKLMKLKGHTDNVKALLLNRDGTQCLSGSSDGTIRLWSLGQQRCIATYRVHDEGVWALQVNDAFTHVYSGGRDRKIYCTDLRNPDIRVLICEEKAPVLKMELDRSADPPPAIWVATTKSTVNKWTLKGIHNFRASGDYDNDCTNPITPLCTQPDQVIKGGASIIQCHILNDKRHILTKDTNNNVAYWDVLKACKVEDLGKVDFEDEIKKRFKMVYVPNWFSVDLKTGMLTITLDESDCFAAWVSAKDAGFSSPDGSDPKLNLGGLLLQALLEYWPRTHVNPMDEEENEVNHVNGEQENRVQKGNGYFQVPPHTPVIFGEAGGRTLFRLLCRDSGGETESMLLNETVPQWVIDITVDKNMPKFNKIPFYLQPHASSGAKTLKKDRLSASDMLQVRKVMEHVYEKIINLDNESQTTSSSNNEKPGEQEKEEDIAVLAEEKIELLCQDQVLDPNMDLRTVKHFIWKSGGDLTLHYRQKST

`COc1cnc(-c2c(Cl)cnn2C(C)C)nc1NCc1ccc(-c2ccccn2)cc1` [Example 162, 2-(4-Chloro-1-isopropyl-1H-pyrazol-5-yl)-5-methoxy-N-(4-(pyridin-2-yl)benzyl)pyrimidin-4-amine]: the IC50 – broadly, the midpoint of a concentration-inhibition curve – in experiment [1] was determined as 3.9 nM; in the experiment on MDA-MB-436, 77.5 nM.
In the same order, the values of `COc1cnc(-c2c(Cl)cnn2C(C)C)nc1NCC1CCN(c2nc(C(F)(F)F)cn2C)CC1` [Example 163, 2-(4-Chloro-1-isopropyl-1H-pyrazol-5-yl)-5-methoxy-N-((1-(1-methyl-4-(trifluoromethyl)-1H-imidazol-2-yl)piperidin-4-yl)methyl)pyrimidin-4-amine] are 2.3 nM and 13.5 nM.
Consider `COc1cnc(-c2c(Cl)cnn2C(C)C)nc1NCc1ccc(-c2nc(C(F)(F)F)cn2C)cc1` [Example 164, 2-(4-Chloro-1-isopropyl-1H-pyrazol-5-yl)-5-methoxy-N-(4-(1-methyl-4-(trifluoromethyl)-1H-imidazol-2-yl)benzyl)pyrimidin-4-amine], for which the IC50 in experiment [1] is 1.1 nM; in the experiment on MDA-MB-436, 0.8 nM.
In the same order, the values of `COc1cnc(-c2c(Cl)cnn2C(C)C)nc1NCc1ccc(-n2nc(C(F)(F)F)cc2C)cc1` [Example 165, 2-(4-Chloro-1-isopropyl-1H-pyrazol-5-yl)-5-methoxy-N-(4-(5-methyl-3-(trifluoromethyl)-1H-pyrazol-1-yl)benzyl)pyrimidin-4-amine] are 1.4 nM and 7.1 nM.
In the same order, the values of `CC(C)n1ncc(Cl)c1-c1nc(NCc2ccc(-c3ccccn3)cc2)c2occc2n1` [Example 166, 2-(4-Chloro-1-isopropyl-1H-pyrazol-5-yl)-N-(4-(pyridin-2-yl)benzyl)furo[3,2-d]pyrimidin-4-amine] are 2.1 nM and 41.4 nM.
The like results for `CC(C)n1ncc(Cl)c1-c1nc(NCc2ccc(-c3nc(C(F)(F)F)cn3C)cc2)c2occc2n1` [Example 167, 2-(4-Chloro-1-isopropyl-1H-pyrazol-5-yl)-N-(4-(1-methyl-4-(trifluoromethyl)-1H-imidazol-2-yl)benzyl)furo[3,2-d]pyrimidin-4-amine] were, in that order, 0.45 nM and 2.9 nM.
`Cc1cc(C(F)(F)F)nn1-c1ccc(CNc2nc(-c3c(Cl)cnn3C(C)C)nc3ccoc23)cc1` [Example 168, 2-(4-Chloro-1-isopropyl-1H-pyrazol-5-yl)-N-(4-(5-methyl-3-(trifluoromethyl)-1H-pyrazol-1-yl)benzyl)furo[3,2-d]pyrimidin-4-amine]: the IC50 in experiment [1] is 1.2 nM; in the experiment on MDA-MB-436 it was 5.1 nM.
With `COc1cnc(-c2ccccc2C2CC2)nc1NCc1ccc(-c2nc(C(F)(F)F)cn2C)cc1` [Example 169, 2-(2-Cyclopropylphenyl)-5-methoxy-N-(4-(1-methyl-4-(trifluoromethyl)-1H-imidazol-2-yl)benzyl)pyrimidin-4-amine], the IC50 in experiment [1] stood at 0.8 nM; with MDA-MB-436 it was 0.4 nM.
The like results for `COc1cnc(-c2ccccc2C2CC2)nc1NCc1ccc(-n2nc(C(F)(F)F)cc2C)cc1` [Example 170, 2-(2-Cyclopropylphenyl)-5-methoxy-N-(4-(5-methyl-3-(trifluoromethyl)-1H-pyrazol-1-yl)benzyl)pyrimidin-4-amine] were, in that order, 2.9 nM and 14.5 nM.
In the same order, the values of `COc1cc(-c2nc(C(F)(F)F)cn2C)ccc1CNc1nc(-c2ccccc2C2CC2)ncc1OC` [Example 171, 2-(2-Cyclopropylphenyl)-5-methoxy-N-(2-methoxy-4-(1-methyl-4-(trifluoromethyl)-1H-imidazol-2-yl)benzyl)pyrimidin-4-amine] are 2.3 nM and 84.7 nM.
Take `COc1cc(CNc2nc(-c3ccccc3C3CC3)ncc2OC)ccc1-c1nc(C(F)(F)F)cn1C` [Example 172, 2-(2-Cyclopropylphenyl)-5-methoxy-N-(3-methoxy-4-(1-methyl-4-(trifluoromethyl)-1H-imidazol-2-yl)benzyl)pyrimidin-4-amine]: the results for the IC50 (in experiment [1]; in the experiment on MDA-MB-436) were 12 nM and 954 nM, respectively.
The like results for `Cn1cc(C(F)(F)F)nc1-c1ccc(CNc2nc(-c3ccccc3C3CC3)nc3ccoc23)cc1` [Example 173, 2-(2-Cyclopropylphenyl)-N-(4-(1-methyl-4-(trifluoromethyl)-1H-imidazol-2-yl)benzyl)furo[3,2-d]pyrimidin-4-amine] were, in that order, 1 nM and 23.6 nM.
The like results for `Cc1cc(C(F)(F)F)nn1-c1ccc(CNc2nc(-c3ccccc3C3CC3)nc3ccoc23)cc1` [Example 174, 2-(2-Cyclopropylphenyl)-N-(4-(5-methyl-3-(trifluoromethyl)-1H-pyrazol-1-yl)benzyl)furo[3,2-d]pyrimidin-4-amine] were, in that order, 5.1 nM and 43.7 nM.
In the same order, the values of `COc1cc(-c2nc(C(F)(F)F)cn2C)ccc1CNc1nc(-c2ccccc2C2CC2)nc2ccoc12` [Example 175, 2-(2-Cyclopropylphenyl)-N-(2-methoxy-4-(1-methyl-4-(trifluoromethyl)-1H-imidazol-2-yl)benzyl)furo[3,2-d]pyrimidin-4-amine] are 3.6 nM and 87.1 nM.
For the molecule `COc1cc(CNc2nc(-c3ccccc3C3CC3)nc3ccoc23)ccc1-c1nc(C(F)(F)F)cn1C` [Example 176, 2-(2-Cyclopropylphenyl)-N-(3-methoxy-4-(1-methyl-4-(trifluoromethyl)-1H-imidazol-2-yl)benzyl)furo[3,2-d]pyrimidin-4-amine], the figures for the IC50 (in experiment [1]; with MDA-MB-436) were 4 nM and 187 nM, respectively.
The like results for `COc1cnc(-c2c(OC)cnn2C(C)C)nc1NCC1CCN(c2nc(C(F)(F)F)cn2C)CC1` [Example 179, 2-(1-Isopropyl-4-methoxy-1H-pyrazol-5-yl)-5-methoxy-N-((1-(1-methyl-4-(trifluoromcthyl)-1H-imidazol-2-yl)piperidin-4-yl)methyl)pyrimidin-4-amine] were, in that order, 56 nM and 197 nM.
In the same order, the values of `COc1cnc(-c2c(OC)cnn2C(C)C)nc1NCc1ccc(-c2nc(C(F)(F)F)cn2C)cc1` [Example 180, 2-(1-Isopropyl-4-methoxy-1H-pyrazol-5-yl)-5-methoxy-N-(4-(1-methyl-4-(trifluoromethyl)-1H-imidazol-2-yl)benzyl)pyrimidin-4-amine] are 15 nM and 123 nM.
In the same order, the values of `COc1cnn(C(C)C)c1-c1nc(NCc2ccc(-n3nc(C(F)(F)F)cc3C)cc2)c2occc2n1` [Example 182, 2-(1-Isopropyl-4-methoxy-1H-pyrazol-5-yl)-N-(4-(5-methyl-3-(trifluoromethyl)-1H-pyrazol-1-yl)benzyl)furo[3,2-d]pyrimidin-4-amine] are 7.4 nM and 6 nM.
With `COc1cnn(C2CC2)c1-c1ncc(OC(F)F)c(NCc2ccc(-c3nc(C(F)(F)F)cn3C)cc2)n1` [Example 185, 2-(1-Cyclopropyl-4-methoxy-1H-pyrazol-5-yl)-5-(difluoromethoxy)-N-(4-(1-methyl-4-(trifluoromethyl)-1H-imidazol-2-yl)benzyl)pyrimidin-4-amine], the IC50 in experiment [1] is 9.8 nM; in the experiment with MDA-MB-436, 120 nM.
In the same order, the values of `Cc1noc(C(C)C)c1-c1nc(NCc2ccc(-c3ccccn3)cc2)c2occc2n1` [Example 189, 2-(5-Isopropyl-3-methylisoxazol-4-yl)-N-(4-(pyridin-2-yl)benzyl)furo[3,2-d]pyrimidin-4-amine] are 16 nM and 307 nM.
For `Cc1noc(C(C)C)c1-c1ncc(OC(F)F)c(NCc2ccc(-c3nc(C(F)(F)F)cn3C)cc2)n1` [Example 190, 5-(Difluoromethoxy)-2-(5-isopropyl-3-methylisoxazol-4-yl)-N-(4-(1-methyl-4-(trifluoromethyl)-1H-imidazol-2-yl)benzyl)pyrimidin-4-amine], the figures for the IC50 (in experiment [1]; in the experiment with MDA-MB-436) were 33 nM and 339 nM, respectively.
In the same order, the values of `COc1cnc(-c2c(Cl)cnn2C2CC2)nc1N(C)Cc1ccc(-c2nc(C(F)(F)F)cn2C)cc1` [Example 191, 2-(4-Chloro-1-cyclopropyl-1H-pyrazol-5-yl)-5-methoxy-N-methyl-N-(4-(1-methyl-4-(trifluoromethyl)-1H-imidazol-2-yl)benzyl)pyrimidin-4-amine] are 4.3 nM and 10.7 nM.
The like results for `COc1cnc(-c2c(Cl)cnn2C2CC2)nc1NCc1ccc(-c2nc(C(F)(F)F)cn2C)cc1` [Example 192, 2-(4-Chloro-1-cyclopropyl-1H-pyrazol-5-yl)-5-methoxy-N-(4-(1-methyl-4-(trifluoromethyl)-1H-imidazol-2-yl)benzyl)pyrimidin-4-amine] were, in that order, 3.8 nM and 20.4 nM.
In the same order, the values of `COc1cnc(-c2cncnc2C2CC2)nc1NCc1ccc(-c2nc(C(F)(F)F)cn2C)cc1` [Example 194, 4'-Cyclopropyl-5-methoxy-N-(4-(1-methyl-4-(trifluoromethyl)-1H-imidazol-2-yl)benzyl)-[2,5'-bipyrimidin]-4-amine] are 51 nM and 58.4 nM.
For the molecule `Cn1cc(C(F)(F)F)nc1-c1ccc(CNc2nc(-c3cncnc3C3CC3)nc3ccoc23)cc1` [Example 196, 2-(4-Cyclopropylpyrimidin-5-yl)-N-(4-(1-methyl-4-(trifluoromethyl)-1H-imidazol-2-yl)benzyl)furo[3,2-d]pyrimidin-4-amine], the IC50 in experiment [1] stood at 12 nM; in the experiment with MDA-MB-436, 82.1 nM.
In the same order, the values of `COc1cnc(-c2c(C)cnn2C2CC2)nc1N(C)Cc1ccc(-c2nc(C(F)(F)F)cn2C)cc1` [Example 198, 2-(1-Cyclopropyl-4-methyl-1H-pyrazol-5-yl)-5-methoxy-N-methyl-N-(4-(1-methyl-4-(trifluoromethyl)-1H-imidazol-2-yl)benzyl)pyrimidin-4-amine] are 3.2 nM and 5.6 nM.

The values above are taken from patent EP4741386A1 (Jiangsu Yahong Meditech Co., Ltd., priority 2023, dated 2025).
